# Results from US20210215714A1, “COMPLEMENT ALTERNATIVE PATHWAY-ASSOCIATED NEPHROPATHY BIOMARKERS” (Achillion Pharmaceuticals, Inc., priority 2018, published 2021).
# “Also recorded” adds a separate entry of the source.
# System: sC5b-9
# Experiment: Phase 2a study: urinary sC5b-9 (MicroVue sC5b-9 Enzyme Immunoassay);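 also: urine from C3 glomerulopathy or IC-MPGN patients, sandwich ELISA capturing sC5b-9 via C9-ring monoclonal with HRP detection read at 450 nm, values raw or normalized to creatinine or albumin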
# Details: for Urine sC5b-9 / sC5b-9/ALB / sC5b-9/Cr: 200 mg TID; for sC5b-9/ALB GEOMEAN / sC5b-9/ALB MEAN / sC5b-9/Cr MEAN / Urine sC5b-9 GEOMEAN / Urine sC5b-9 MEAN / sC5b-9/Cr GEOMEAN: patients A-F
# Source text: 10 patients with either C3 Glomerulopathy (C3G) or Immune-Complex Membranoproliferative Glomerulonephritis (IC-MPGN) are to be enrolled across two dose groups. […] Inclusion criteria include a clinical diagnosis of C3G (C3 glomerulonephritis [C3GN] or dense deposit disease [DDD], the 2 types of C3G) or idiopathic immune-complex membranoproliferative glomerulonephritis (IC-MPGN) by renal biopsy for at least 3 months prior to dosing, with the pathologic diagnosis verified by review of the renal biopsy by the study central pathologist. Patients must have low C3 levels (<50% of the lower limit of normal) and normal or near-normal C4 levels (>90% of the lower limit of normal).
# To measure urinary sC5b-9 production, patient urine samples were tested utilizing the MicroVue sC5b-9 Enzyme Immunoassay for the quantitation of sC5b-9 in urine. […] The samples were tested utilizing the MicroVue sC5b-9 Enzyme Immunoassay for the quantitation of sC5b-9 urine, which is a three-step procedure utilizing a micro-assay plate coated with a mouse monoclonal antibody that binds specifically to the C9 ring of sC5b-9, HRP-conjugated antibodies to antigens of sC5b-9, and a chromogenic substrate. In step 1, standards, controls, and test specimens are added to micro-assay wells pre-coated with an anti-sC5b-9 specific monoclonal antibody. sC5b-9 present in the Standards, Controls, or specimens will bind to the immobilized sC5b-9 monoclonal antibody. After incubation, a wash cycle removes unbound material. […] In step 2, horseradish peroxidase (HRP)-conjugated antibodies to antigens of sC5b-9 are added to each test well. The enzyme conjugated antibodies bind to sC5b-9 that was captured by the monoclonal anti-sC5b-9 bound on the surface of the micro-assay wells. After incubation, a wash cycle removes unbound, excess conjugate. In step 3, a chromogenic enzyme substrate is added to each micro-assay well. The bound HRP-conjugate reacts with the substrate, forming a blue color. After incubation the enzyme reaction is stopped chemically, the color changes to yellow, and the color intensity is measured spectrophotometrically at 450 nm. The color intensity of the reaction mixture is proportional to the concentration of sC5b-9 present in the test specimens, standards, and controls. […] Measurements of urinary biomarkers are typically normalized to urine creatinine or albumin levels to account for variation in biomarker levels due to changes in urinary filtration rate.
compound,measurement,setting,value
"CC(=O)c1nn(CC(=O)N2C[C@H](F)C[C@H]2C(=O)Nc2cccc(Br)n2)c2ccc(-c3cnc(C)nc3)cc12 [Compound 1, (2S,4R)-1-(2-(3-acetyl-5-(2-methylpyrimidin-5-yl)-1H-indazol-1-yl)acetyl)-N-(6-bromopyridin-2-yl)-4-fluoropyrrolidine-2-carboxamide]",Urine sC5b-9,"Patient D, Day 21 Taper",44.0 ng/mL
same,sC5b-9/ALB,"Patient D, Day 21 Taper",18 ng/mg
same,sC5b-9/Cr,"Patient D, Day 21 Taper",10.5 µg/mmol
same,Urine sC5b-9,"Patient D, Follow-Up Day 24",39.9 ng/mL
same,sC5b-9/ALB,"Patient D, Follow-Up Day 24",21 ng/mg
same,sC5b-9/Cr,"Patient D, Follow-Up Day 24",5.9 µg/mmol
same,Urine sC5b-9,"Patient D, Follow-Up Day 28",57.8 ng/mL
same,sC5b-9/ALB,"Patient D, Follow-Up Day 28",21 ng/mg
same,sC5b-9/Cr,"Patient D, Follow-Up Day 28",12.0 µg/mmol
same,Urine sC5b-9,"Patient D, Follow-Up Day 49",40.3 ng/mL
same,sC5b-9/ALB,"Patient D, Follow-Up Day 49",16 ng/mg
same,sC5b-9/Cr,"Patient D, Follow-Up Day 49",10.3 µg/mmol
same,Urine sC5b-9,"Patient D, Screen",148.7 ng/mL
same,sC5b-9/ALB,"Patient D, Screen",34 ng/mg
same,sC5b-9/Cr,"Patient D, Screen",19.6 µg/mmol
same,sC5b-9/ALB,"Patient E, Day 1/0 Hour",127 ng/mg
same,sC5b-9/Cr,"Patient E, Day 1/0 Hour",54.0 µg/mmol
same,Urine sC5b-9,"Patient E, Day 1 predose",959 ng/mL
same,Urine sC5b-9,"Patient E, Day 4",538 ng/mL
same,sC5b-9/ALB,"Patient E, Day 4",61 ng/mg
same,Urine sC5b-9,"Patient E, Day 7",484 ng/mL
same,sC5b-9/ALB,"Patient E, Day 7/0 Hour",59 ng/mg
same,sC5b-9/Cr,"Patient E, Day 7/0 Hour",31.5 µg/mmol
same,Urine sC5b-9,"Patient E, Day 10",212 ng/mL
same,sC5b-9/ALB,"Patient E, Day 10",26 ng/mg
same,sC5b-9/Cr,"Patient E, Day 10",16.1 µg/mmol
same,Urine sC5b-9,"Patient E, Day 14",112 ng/mL
same,sC5b-9/ALB,"Patient E, Day 14",19 ng/mg
same,sC5b-9/Cr,"Patient E, Day 14",5.0 µg/mmol
same,Urine sC5b-9,"Patient E, Day 15 Taper",70 ng/mL
same,sC5b-9/ALB,"Patient E, Day 15 Taper",23 ng/mg
same,sC5b-9/Cr,"Patient E, Day 15 Taper",7.5 µg/mmol
same,Urine sC5b-9,"Patient E, Day 16 Taper",42 ng/mL
same,sC5b-9/ALB,"Patient E, Day 16 Taper",15 ng/mg
same,sC5b-9/Cr,"Patient E, Day 16 Taper",4.2 µg/mmol
same,Urine sC5b-9,"Patient E, Day 17 Taper",74 ng/mL
same,sC5b-9/ALB,"Patient E, Day 17 Taper",20 ng/mg
same,sC5b-9/Cr,"Patient E, Day 17 Taper",9.4 µg/mmol
same,Urine sC5b-9,"Patient E, Day 21 Taper",97 ng/mL
same,sC5b-9/ALB,"Patient E, Day 21 Taper",50 ng/mg
same,sC5b-9/Cr,"Patient E, Day 21 Taper",12.7 µg/mmol
same,Urine sC5b-9,"Patient E, Follow-Up Day 24",188 ng/mL
same,sC5b-9/ALB,"Patient E, Follow-Up Day 24",50 ng/mg
same,sC5b-9/Cr,"Patient E, Follow-Up Day 24",15.1 µg/mmol
same,Urine sC5b-9,"Patient E, Follow-Up Day 28",141 ng/mL
same,sC5b-9/ALB,"Patient E, Follow-Up Day 28",28 ng/mg
same,sC5b-9/Cr,"Patient E, Follow-Up Day 28",8.5 µg/mmol
same,Urine sC5b-9,"Patient E, Follow-Up Day 49",217 ng/mL
same,sC5b-9/ALB,"Patient E, Follow-Up Day 49",42 ng/mg
same,sC5b-9/ALB,"Patient F, Day 1/0 Hour",120 ng/mg
same,sC5b-9/Cr,"Patient F, Day 1/0 Hour",35.2 µg/mmol
same,Urine sC5b-9,"Patient F, Day 1 predose",348 ng/mL
same,Urine sC5b-9,"Patient F, Day 4",43 ng/mL
same,sC5b-9/ALB,"Patient F, Day 4",58 ng/mg
same,sC5b-9/Cr,"Patient F, Day 4",8.8 µg/mmol
same,Urine sC5b-9,"Patient F, Day 7",54 ng/mL
same,sC5b-9/ALB,"Patient F, Day 7/0 Hour",147 ng/mg
same,sC5b-9/Cr,"Patient F, Day 7/0 Hour",13.9 µg/mmol
same,Urine sC5b-9,"Patient F, Day 10",34 ng/mL
same,Urine sC5b-9,"Patient F, Day 14",62 ng/mL
same,sC5b-9/ALB,"Patient F, Day 14",37 ng/mg
same,sC5b-9/Cr,"Patient F, Day 14",6.7 µg/mmol
same,Urine sC5b-9,"Patient F, Day 15 Taper",35 ng/mL
same,sC5b-9/ALB,"Patient F, Day 15 Taper",8 ng/mg
same,sC5b-9/Cr,"Patient F, Day 15 Taper",5.8 µg/mmol
same,Urine sC5b-9,"Patient F, Day 16 Taper",25 ng/mL
same,sC5b-9/ALB,"Patient F, Day 16 Taper",30 ng/mg
same,sC5b-9/Cr,"Patient F, Day 16 Taper",7.0 µg/mmol
same,Urine sC5b-9,"Patient F, Day 17 Taper",55 ng/mL
same,sC5b-9/ALB,"Patient F, Day 17 Taper",12 ng/mg
same,sC5b-9/Cr,"Patient F, Day 17 Taper",5.9 µg/mmol
same,Urine sC5b-9,"Patient F, Day 21 Taper",104 ng/mL
same,sC5b-9/ALB,"Patient F, Day 21 Taper",24 ng/mg
same,sC5b-9/Cr,"Patient F, Day 21 Taper",8.2 µg/mmol
same,Urine sC5b-9,"Patient F, Follow-Up Day 24",51 ng/mL
same,sC5b-9/ALB,"Patient F, Follow-Up Day 24",34 ng/mg
same,sC5b-9/Cr,"Patient F, Follow-Up Day 24",9.5 µg/mmol
same,Urine sC5b-9,"Patient F, Follow-Up Day 28",65 ng/mL
same,sC5b-9/ALB,"Patient F, Follow-Up Day 28",57 ng/mg
same,sC5b-9/Cr,"Patient F, Follow-Up Day 28",14.4 µg/mmol
same,Urine sC5b-9,"Patient F, Follow-Up Day 49",180 ng/mL
same,sC5b-9/ALB,"Patient F, Follow-Up Day 49",59 ng/mg
same,sC5b-9/Cr,"Patient F, Follow-Up Day 49",33.2 µg/mmol
same,sC5b-9/ALB GEOMEAN,Day 1/0 Hour,125.0 ng/mg
same,sC5b-9/ALB MEAN,Day 1/0 Hour,335.0 ng/mg
same,sC5b-9/Cr MEAN,Day 1/0 Hour,163.6 µg/mmol
same,Urine sC5b-9 GEOMEAN,Day 1 predose,210 ng/mL
same,Urine sC5b-9 MEAN,Day 1 predose,1120 ng/mL
same,Urine sC5b-9 GEOMEAN,Day 4,94 ng/mL
same,Urine sC5b-9 MEAN,Day 4,472 ng/mL
same,sC5b-9/ALB GEOMEAN,Day 4,80.6 ng/mg
same,sC5b-9/ALB MEAN,Day 4,165.3 ng/mg
same,sC5b-9/Cr GEOMEAN,Day 4,14.0 µg/mmol
same,sC5b-9/Cr MEAN,Day 4,37.0 µg/mmol
same,Urine sC5b-9 GEOMEAN,Day 7,91 ng/mL
same,Urine sC5b-9 MEAN,Day 7,483 ng/mL
same,sC5b-9/ALB GEOMEAN,Day 7/0 Hour,102.8 ng/mg
same,sC5b-9/ALB MEAN,Day 7/0 Hour,171.5 ng/mg
same,sC5b-9/Cr GEOMEAN,Day 7/0 Hour,17.1 µg/mmol
same,sC5b-9/Cr MEAN,Day 7/0 Hour,38.0 µg/mmol
same,Urine sC5b-9 GEOMEAN,Day 10,56 ng/mL
same,Urine sC5b-9 MEAN,Day 10,231 ng/mL
same,Urine sC5b-9 GEOMEAN,Day 15 Taper,66 ng/mL
same,Urine sC5b-9 MEAN,Day 15 Taper,588 ng/mL
same,sC5b-9/ALB GEOMEAN,Day 15 Taper,48.2 ng/mg
same,sC5b-9/ALB MEAN,Day 15 Taper,192.6 ng/mg
same,sC5b-9/Cr GEOMEAN,Day 15 Taper,11.9 µg/mmol
same,sC5b-9/Cr MEAN,Day 15 Taper,55.8 µg/mmol
same,Urine sC5b-9 GEOMEAN,Day 17 Taper,71 ng/mL
same,Urine sC5b-9 MEAN,Day 17 Taper,488 ng/mL
same,sC5b-9/ALB GEOMEAN,Day 17 Taper,51.5 ng/mg
same,sC5b-9/ALB MEAN,Day 17 Taper,191.3 ng/mg
same,sC5b-9/Cr GEOMEAN,Day 17 Taper,11.6 µg/mmol
same,sC5b-9/Cr MEAN,Day 17 Taper,45.3 µg/mmol
same,Urine sC5b-9 GEOMEAN,Day 21 Taper,99 ng/mL
same,Urine sC5b-9 MEAN,Day 21 Taper,468 ng/mL
same,sC5b-9/ALB GEOMEAN,Day 21 Taper,76.3 ng/mg
same,sC5b-9/ALB MEAN,Day 21 Taper,190.1 ng/mg
same,sC5b-9/Cr GEOMEAN,Day 21 Taper,15.2 µg/mmol
same,sC5b-9/Cr MEAN,Day 21 Taper,58.3 µg/mmol
same,Urine sC5b-9 GEOMEAN,Follow-Up Day 24,108 ng/mL
same,Urine sC5b-9 MEAN,Follow-Up Day 24,724 ng/mL
same,sC5b-9/ALB GEOMEAN,Follow-Up Day 24,92.3 ng/mg
same,sC5b-9/ALB MEAN,Follow-Up Day 24,289.8 ng/mg
same,sC5b-9/Cr GEOMEAN,Follow-Up Day 24,17.8 µg/mmol
same,sC5b-9/Cr MEAN,Follow-Up Day 24,115.8 µg/mmol
same,Urine sC5b-9 GEOMEAN,Follow-Up Day 28,113 ng/mL
same,Urine sC5b-9 MEAN,Follow-Up Day 28,457 ng/mL
same,sC5b-9/ALB GEOMEAN,Follow-Up Day 28,80.5 ng/mg
same,sC5b-9/ALB MEAN,Follow-Up Day 28,200.5 ng/mg
same,sC5b-9/Cr MEAN,Follow-Up Day 28,64.2 µg/mmol
same,Urine sC5b-9 GEOMEAN,Follow-Up Day 49,162 ng/mL
same,Urine sC5b-9 MEAN,Follow-Up Day 49,2440 ng/mL
same,sC5b-9/ALB GEOMEAN,Follow-Up Day 49,123.3 ng/mg
same,sC5b-9/ALB MEAN,Follow-Up Day 49,1111.7 ng/mg
same,sC5b-9/Cr GEOMEAN,Follow-Up Day 49,23.5 µg/mmol
same,sC5b-9/Cr MEAN,Follow-Up Day 49,159.5 µg/mmol
same,Urinary sC5b-9 levels,two-week treatment,reduced significantly; also recorded: reduced in all patients
same,Urinary sC5b-9 levels normalized to urinary creatinine or albumin,two-week treatment,reduced significantly
